# Values quoted from earlier work, collected in US20120058151A1, “NANOPARTICULATE COMPOSITIONS OF POORLY SOLUBLE COMPOUNDS” (CAPSULUTION PHARMA AG, priority 2008, published 2012).
compound,measurement,value
CCOc1nc2cccc(C(=O)OC(C)OC(=O)OC3CCCCC3)c2n1Cc1ccc(-c2ccccc2-c2nnn[nH]2)cc1 (stereo not shown) [candesartan cilexetil],solubility in water,practically insoluble in water
